Measurements reported in patent US8058009B2, “Target protein and target gene in drug designing and screening method” (Reverse Proteomics Research Institute Co., Ltd., priority 2004, dated 2011).

What was measured:
FLJ10335-derived protein = target: T1, FLJ10335-derived protein (Homo sapiens, UniProt Q9NW38, S77P); assay: Biacore S51 surface plasmon resonance binding to FLJ10335-derived protein
T1 construct: made in house; host or cells: wheat germ cell-free synthesis system (PROTEIOS, Toyobo)
T1 sequence (Q9NW38 1-375 S77P): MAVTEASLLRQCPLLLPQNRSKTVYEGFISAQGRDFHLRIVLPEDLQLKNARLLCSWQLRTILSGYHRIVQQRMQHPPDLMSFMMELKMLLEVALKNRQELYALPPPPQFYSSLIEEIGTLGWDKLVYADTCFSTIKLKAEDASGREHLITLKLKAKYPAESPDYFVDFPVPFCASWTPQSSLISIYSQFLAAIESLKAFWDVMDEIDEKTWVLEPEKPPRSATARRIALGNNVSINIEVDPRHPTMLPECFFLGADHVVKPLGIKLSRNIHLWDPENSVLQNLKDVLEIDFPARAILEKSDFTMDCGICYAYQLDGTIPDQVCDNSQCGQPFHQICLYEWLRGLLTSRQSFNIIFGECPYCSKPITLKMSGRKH
Protocol: (§1) A desired gene of a human full-length cDNA clone was BP-reacted with the PCR cloning vector Gateway pDONR201 using the Invitrogen Gateway system per the kit protocol to yield an entry vector. […]
(§2) The surface of the CM5 sensor chip for S51 commercially available from Biacore Company was subjected to an NTA treatment with 1 M EDC, 1.33 M NHS and 16 mg/ml AB-NTA (pH 9.2) to prepare an NTA sensor chip for S51. […] A correction for the effect of DMSO contained in the compound solutions and running buffer (solvent correction) was performed on the basis of measured results from separately prepared solutions mimicking the running buffer, and containing 3.8 to 5.1% of DMSO (8 points). The compound characterization assay program for Biacore S51 was performed to measure the interactions between immobilized ligands (proteins) and analytes (compounds; 62.5 μM to 0.244 μM), and the results were analyzed using a dedicated software program. […]

FLJ12502-derived protein = target: T2, FLJ12502-derived protein (Homo sapiens, UniProt Q7Z3D6); assay: Biacore S51 surface plasmon resonance binding to FLJ12502-derived protein
T2 construct: made in house; host or cells: wheat germ cell-free synthesis system (PROTEIOS, Toyobo)
T2 sequence (Q7Z3D6 29-616): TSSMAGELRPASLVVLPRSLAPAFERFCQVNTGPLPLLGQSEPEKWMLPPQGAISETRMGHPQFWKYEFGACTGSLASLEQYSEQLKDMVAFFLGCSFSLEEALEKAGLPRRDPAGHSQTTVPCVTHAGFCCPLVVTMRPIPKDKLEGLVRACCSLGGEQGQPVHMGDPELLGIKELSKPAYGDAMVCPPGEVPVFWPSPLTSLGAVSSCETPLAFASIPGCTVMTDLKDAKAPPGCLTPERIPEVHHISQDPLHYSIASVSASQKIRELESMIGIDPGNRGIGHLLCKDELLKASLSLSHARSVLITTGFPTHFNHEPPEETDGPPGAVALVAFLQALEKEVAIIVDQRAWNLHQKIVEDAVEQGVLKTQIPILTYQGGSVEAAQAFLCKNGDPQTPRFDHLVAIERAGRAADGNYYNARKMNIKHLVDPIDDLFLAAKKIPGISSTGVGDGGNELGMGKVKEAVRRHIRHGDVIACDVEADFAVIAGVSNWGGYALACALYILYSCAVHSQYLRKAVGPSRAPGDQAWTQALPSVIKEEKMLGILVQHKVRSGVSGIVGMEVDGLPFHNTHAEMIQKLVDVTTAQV
Protocol: as §1, §2

FLJ10889-derived protein = target: T3, FLJ10889-derived protein (Homo sapiens, UniProt Q7L7V1, A496G/L459S/P686L/V123M); assay: Biacore S51 surface plasmon resonance binding to FLJ10889-derived protein
T3 construct: made in house; host or cells: wheat germ cell-free synthesis system (PROTEIOS, Toyobo)
T3 sequence (Q7L7V1 1-743 V123M/L459S/A496G/P686L): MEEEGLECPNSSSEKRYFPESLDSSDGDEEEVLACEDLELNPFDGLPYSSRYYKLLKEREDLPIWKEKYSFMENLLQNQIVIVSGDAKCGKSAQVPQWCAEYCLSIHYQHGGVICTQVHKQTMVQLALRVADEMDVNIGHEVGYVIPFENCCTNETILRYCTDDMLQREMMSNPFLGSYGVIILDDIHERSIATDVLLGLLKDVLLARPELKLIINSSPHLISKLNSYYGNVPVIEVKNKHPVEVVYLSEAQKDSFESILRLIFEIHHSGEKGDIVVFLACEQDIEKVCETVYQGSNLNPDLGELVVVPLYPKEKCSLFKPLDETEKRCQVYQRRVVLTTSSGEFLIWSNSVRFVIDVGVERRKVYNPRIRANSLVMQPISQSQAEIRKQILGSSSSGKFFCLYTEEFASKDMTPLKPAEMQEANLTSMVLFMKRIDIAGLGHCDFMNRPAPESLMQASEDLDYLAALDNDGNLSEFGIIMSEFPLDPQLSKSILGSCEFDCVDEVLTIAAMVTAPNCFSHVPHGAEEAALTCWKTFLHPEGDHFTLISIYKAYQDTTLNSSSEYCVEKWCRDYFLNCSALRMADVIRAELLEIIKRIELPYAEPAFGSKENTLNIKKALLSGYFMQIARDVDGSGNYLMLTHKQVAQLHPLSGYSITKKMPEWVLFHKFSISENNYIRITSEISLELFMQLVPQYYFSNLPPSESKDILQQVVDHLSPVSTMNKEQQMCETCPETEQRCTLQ
Protocol: as §1, §2

FLJ11045-derived protein = target: T4, FLJ11045-derived protein (Homo sapiens, UniProt Q9BXT8, E1380K); assay: Biacore S51 surface plasmon resonance binding to FLJ11045-derived protein
T4 construct: made in house; host or cells: wheat germ cell-free synthesis system (PROTEIOS, Toyobo)
T4 sequence (Q9BXT8 949-1581 isoform Q9BXT8-4 E1338K): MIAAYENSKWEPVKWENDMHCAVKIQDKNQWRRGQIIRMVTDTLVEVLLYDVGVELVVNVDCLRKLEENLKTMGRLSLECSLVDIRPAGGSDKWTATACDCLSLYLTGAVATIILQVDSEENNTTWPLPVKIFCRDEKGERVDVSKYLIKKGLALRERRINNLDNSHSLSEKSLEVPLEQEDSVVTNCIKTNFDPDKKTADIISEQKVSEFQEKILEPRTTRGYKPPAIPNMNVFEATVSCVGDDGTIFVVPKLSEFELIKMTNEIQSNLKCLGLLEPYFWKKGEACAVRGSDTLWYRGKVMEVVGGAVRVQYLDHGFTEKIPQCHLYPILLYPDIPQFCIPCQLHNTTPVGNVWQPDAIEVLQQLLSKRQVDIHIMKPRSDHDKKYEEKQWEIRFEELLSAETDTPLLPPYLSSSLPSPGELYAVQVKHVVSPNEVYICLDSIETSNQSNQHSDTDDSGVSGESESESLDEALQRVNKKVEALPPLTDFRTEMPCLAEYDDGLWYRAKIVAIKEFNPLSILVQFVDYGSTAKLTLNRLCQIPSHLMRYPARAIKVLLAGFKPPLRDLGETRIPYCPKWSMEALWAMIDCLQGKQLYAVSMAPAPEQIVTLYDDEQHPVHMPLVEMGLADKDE
From the text: A desired gene of a human full-length cDNA clone was BP-reacted with the PCR cloning vector Gateway pDONR201 using the Invitrogen Gateway system per the kit protocol to yield an entry vector. As the destination vector for the Gateway system, a Gateway cassette having a Gateway recombinant sequence was introduced to allow the utilization of the Gateway system on the basis of pEU3-NII (Toyobo), which matches with a cell-free protein synthesis system (PROTEIOS) of Toyobo Co., Ltd., which employs a wheat germ extract, and a double tag destination vector modified using the PCR method to allow the expression of a peptide having a histidine tag and a FLAG tag sequence in the N-terminal region of the expressed protein was prepared.
The prepared double tag destination vector and entry vector were […] using the Invitrogen Gateway system per the protocol and the Escherichia coli competent cell DH5α was transformed therewith; a clone incorporating the expression vector was selected. A plasmid was prepared from the obtained clone using the QIAfilter Midi kit (QUIAGEN) per the kit protocol. The plasmid obtained was subjected to phenol/chloroform treatment per the protocol for PROTEIOS (Toyobo) to inactivate the RNase to yield a purified expression plasmid.
A recombinant protein was synthesized using a cell-free protein synthesis system (PROTEIOS) of Toyobo Co., Ltd., which employs a wheat germ extract. Subsequently, mRNA was prepared from the expression plasmid acquired by the method described in section 1 above per the protocol for PROTEIOS. With 20 μg of the mRNA acquired, a protein was synthesized per the protocol for PROTEIOS using two wells of a 96-well microtiter plate. The protein synthesized was subjected to high-speed centrifugation, the precipitate was removed, and the resulting soluble fraction was purified using ANTI-FLAG M2 Affinity Gel (SIGMA Company) having an anti-FLAG tag antibody immobilized hereto per the protocol, to yield a purified protein.
as §2

[1] = test system: mutant SOD-transgenic mouse showing ALS-like symptoms; settings: intraperitoneally administered; cited from earlier work
FLJ14583-derived protein = target: T5, FLJ14583-derived protein (Homo sapiens, UniProt Q12816); assay: Biacore S51 surface plasmon resonance binding to FLJ14583-derived protein
T5 construct: made in house; host or cells: wheat germ cell-free synthesis system (PROTEIOS, Toyobo)
T5 sequence (Q12816 1-706 isoform Q12816-2): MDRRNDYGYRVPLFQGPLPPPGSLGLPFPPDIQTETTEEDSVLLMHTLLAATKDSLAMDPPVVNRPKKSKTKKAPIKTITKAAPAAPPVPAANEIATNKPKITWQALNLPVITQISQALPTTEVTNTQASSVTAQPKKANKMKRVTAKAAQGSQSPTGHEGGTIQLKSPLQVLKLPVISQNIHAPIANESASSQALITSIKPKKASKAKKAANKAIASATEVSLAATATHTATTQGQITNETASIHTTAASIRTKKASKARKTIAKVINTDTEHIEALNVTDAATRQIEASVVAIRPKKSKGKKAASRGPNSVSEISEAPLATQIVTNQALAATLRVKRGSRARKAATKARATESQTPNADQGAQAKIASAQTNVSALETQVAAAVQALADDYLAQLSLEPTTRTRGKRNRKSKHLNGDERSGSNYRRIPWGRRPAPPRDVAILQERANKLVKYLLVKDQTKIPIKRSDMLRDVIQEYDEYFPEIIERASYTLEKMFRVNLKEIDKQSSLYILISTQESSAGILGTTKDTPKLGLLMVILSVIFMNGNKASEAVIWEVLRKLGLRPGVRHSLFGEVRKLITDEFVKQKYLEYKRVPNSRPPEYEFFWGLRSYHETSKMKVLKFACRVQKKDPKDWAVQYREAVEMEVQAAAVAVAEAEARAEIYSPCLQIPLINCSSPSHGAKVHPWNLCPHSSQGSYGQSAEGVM
Protocol: as §1, §2

CC(C)C[C@H](NC(=O)[C@@H](O)[C@H](N)Cc1ccccc1)C(=O)O [ubenimex]
interaction with the protein (binding level dose-proportional, saturated at high doses) (FLJ10335-derived protein): interact specifically

C[C@H]1[C@H](C)CC[C@]2(C(=O)O)CC[C@]3(C)C(=CC[C@@H]4[C@@]5(C)CC[C@H](O)C(C)(C)[C@@H]5CC[C@]43C)[C@H]12 [ursolic acid]
interaction with the protein (binding level dose-proportional, saturated at high doses) (FLJ12502-derived protein): interact specifically

CC[C@@]1(O)C[C@H](O[C@H]2C[C@H](N(C)C)[C@H](O[C@H]3C[C@H](O)[C@H](O[C@H]4CCC(=O)[C@H](C)O4)[C@H](C)O3)[C@H](C)O2)c2c(cc3c(c2O)C(=O)c2c(O)cccc2C3=O)[C@H]1C(=O)OC [aclarubicin]
interaction with the protein (binding level dose-proportional, saturated at high doses) (FLJ10889-derived protein): interact specifically

CC1=C(C(=O)O)N2C(=O)[C@@H](NC(=O)[C@H](N)c3ccc(O)cc3)[C@H]2SC1 [cefadroxil]
Kd (FLJ11045-derived protein; Biacore S51, immobilized FLJ11045-derived protein, analyte 62.5 μM to 0.244 μM, read-out: binding dissociation constant Kd): 11.5 µM
interaction with the protein (binding level dose-proportional, saturated at high doses) (FLJ11045-derived protein; FLJ11045-derived protein, Biacore S51): interact specifically

CO/N=C(\C(=O)N[C@@H]1C(=O)N2C(C(=O)O)=C(CSc3nc(=O)c(=O)[nH]n3C)CS[C@H]12)c1csc(N)n1 [ceftriaxone]
expression of GLT1 in the spinal cord [1]: increased
muscle strength [1]: increase in the muscle strength
neuron number [1]: recovery of neuron number

Cc1onc(-c2c(Cl)cccc2Cl)c1C(=O)N[C@@H]1C(=O)N2[C@@H]1SC(C)(C)[C@@H]2C(=O)O [dicloxacillin]
Kd (FLJ14583-derived protein; Biacore S51, immobilized FLJ14583-derived protein, analyte 62.5 μM to 0.244 μM, read-out: binding dissociation constant Kd): 23 µM
interaction with the protein (binding level dose-proportional, saturated at high doses) (FLJ14583-derived protein; FLJ14583-derived protein, Biacore S51): interact specifically
